In patent publication US6270979A (priority 1998, dated 2001):
Entries after “also recorded” stand apart in the source; their conditions may differ. Structures can show the parent of a compound that is named as a salt. Where two headings read alike, the source gives them in different places.

How the values were obtained:
opioid μ receptor [1] = assay type: cell-based, human
Male ICR mice = details: mouse, in vivo
[2] = test system: D2 receptor (long splice isoform); assay: D2 receptor cAMP assay in stably transfected HEK293 cells; assay type: cell-based; details: for negative antagonism at D2 receptor: preliminary, stably transfected HEK293 cells, quinpirole as agonist
Mice = assay type: in vivo
[3] = test system: muscarinic m1 receptor mutant m1-E360A; assay type: cell-based
opioid μ receptor [4] = target: opioid μ receptor (Homo sapiens, UniProt P35372); assay type: cell-based
[5] = target: epitope-tagged μ opioid receptor (EE-μR) (Rattus norvegicus, UniProt P33535); assay type: cell-based
PKC = details: known; cited from earlier work
PKA = details: known; cited from earlier work
μ opioid receptor [6] = target: T1, μ opioid receptor (Rattus norvegicus, UniProt P33535); details: added acutely, μ and EEμ receptor transfected HEK293 cells
μ opioid receptor [7] = target: T1, μ opioid receptor; assay: Receptor recycling through endocytic vesicles; assay type: cell-based; set-up: expressed in transfected cells
opioid μ receptor [8] = details: prior knowledge; cited from earlier work
cAMP phosphodiesterase = details: generally recognized; Beavo et al.; cited from earlier work

Chain of epitope-tagged μ opioid receptor (EE-μR) (P33535 whole entry): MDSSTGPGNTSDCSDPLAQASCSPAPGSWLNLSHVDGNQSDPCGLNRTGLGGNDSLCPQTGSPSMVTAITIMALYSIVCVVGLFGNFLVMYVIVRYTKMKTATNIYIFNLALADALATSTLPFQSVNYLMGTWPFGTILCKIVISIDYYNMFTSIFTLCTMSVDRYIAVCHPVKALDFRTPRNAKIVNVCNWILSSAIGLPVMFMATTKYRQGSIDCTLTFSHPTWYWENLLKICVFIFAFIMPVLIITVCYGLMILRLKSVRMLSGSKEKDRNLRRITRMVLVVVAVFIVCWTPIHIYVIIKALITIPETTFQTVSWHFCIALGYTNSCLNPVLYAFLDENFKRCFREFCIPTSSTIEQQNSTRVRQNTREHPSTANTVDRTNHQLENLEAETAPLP
Chain of opioid μ receptor (Homo sapiens, UniProt P35372) (P35372 whole entry): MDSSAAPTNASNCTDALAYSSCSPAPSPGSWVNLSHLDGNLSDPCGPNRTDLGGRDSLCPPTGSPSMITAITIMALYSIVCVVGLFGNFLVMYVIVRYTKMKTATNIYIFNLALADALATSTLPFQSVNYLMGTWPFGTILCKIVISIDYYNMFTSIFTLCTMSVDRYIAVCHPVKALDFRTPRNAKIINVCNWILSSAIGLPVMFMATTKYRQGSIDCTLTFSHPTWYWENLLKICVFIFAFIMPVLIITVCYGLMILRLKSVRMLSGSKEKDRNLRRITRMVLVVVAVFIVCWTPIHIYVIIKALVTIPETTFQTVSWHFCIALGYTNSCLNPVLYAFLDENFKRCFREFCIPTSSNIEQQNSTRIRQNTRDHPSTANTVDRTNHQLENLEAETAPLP
T1 sequence (P33535 whole entry): as the sequence (P33535 whole entry) above

N=C(N)NCCNS(=O)(=O)c1cccc2cnccc12 [HA-1004, N(2-guanidinoethyl)-5-isoquinolinesulfonamide hydrochloride]
effect on naloxone cAMP overshoot / formation of μ* when added with morphine pretreatment (opioid μ receptor [1]): capable of preventing formation of the constitutively active μ receptor state

C=CCN1CC[C@]23c4c5ccc(O)c4O[C@H]2C(=O)CC[C@@]3(O)[C@H]1C5 [naloxone]
reversal of morphine dependence (Male ICR mice): does not reverse the dependent state in vivo | withdrawal jumps (Male ICR mice): 77±20 jumps

CCN1CCCC1CNC(=O)c1cc(S(N)(=O)=O)ccc1OC (centres unmarked) [sulpiride]
negative antagonism at D2 receptor [2]: some degree of negative antagonism

O=C(CCCN1CCC2(CC1)C(=O)NCN2c1ccccc1)c1ccc(F)cc1 [spiperone]
effect on cAMP levels in absence of agonist ([2]; incubation in absence of agonist, relative to control): decreased cAMP levels relative to control | negative antagonism at D2 receptor [2]: some degree of negative antagonism

OCCN1CCN(CCCN2c3ccccc3Sc3ccc(C(F)(F)F)cc32)CC1 [thuphenazine]
negative antagonism at D2 receptor [2]: some degree of negative antagonism

C=C1[C@@H](O)[C@@H]2O[C@]3(CC[C@H](/C=C/[C@@H](C)[C@@H]4CC(C)=C[C@@]5(O[C@H](C[C@@](C)(O)C(=O)O)CC[C@H]5O)O4)O3)CC[C@H]2O[C@@H]1[C@@H](O)C[C@H](C)[C@H]1O[C@@]2(CCCCO2)CC[C@H]1C [okadaic acid]
effect of phosphatase inhibitor on enhancing μ* (opioid μ receptor [1]): ineffective in enhancing μ*

Cl.Cl.NCCNS(=O)(=O)c1cccc2cnccc12 [H9, N-(2-aminoethyl)-5-isoquinolinesulfonamide dihydrochloride]
effect on naloxone cAMP overshoot / formation of μ* when added with morphine pretreatment (opioid μ receptor [1]): capable of preventing formation of the constitutively active μ receptor state

CN1CC[C@]23c4c5ccc(O)c4O[C@H]2[C@@H](O)C=C[C@H]3[C@H]1C5 [morphine]
analgesia of second morphine dose, saline control (Mice; 10 mg/kg morphine sulfate 5 hours after 100 mg/kg, 30 minutes after saline): 22±14%

CN1CCN(CCCN2c3ccccc3Sc3ccc(C(F)(F)F)cc32)CC1 [trifluoperatine]
negative antagonism at D2 receptor [2]: some degree of negative antagonism

CN1[C@@H]2C[C@@H](OC(=O)[C@H](CO)c3ccccc3)C[C@H]1[C@@H]1O[C@@H]12 [scopolamine]
classification at m1-E360A [3]: negative antagonists | effect on m1-E360A basal activity [3]: decreasing effects on m1-E360A basal activity

CC(C)C[C@@H](NC(=O)[C@H](Cc1ccccc1)NC(=O)CNC(=O)[C@@H](C)NC(=O)[C@@H](N)Cc1ccc(O)cc1)C(=O)O [DADLE]
classification of opioid drug (agonist / neutral / negative antagonist) (opioid μ receptor [4]): full agonists and are either as effective if not more so than morphine

CN1[C@@H]2CC[C@H]1C[C@@H](OC(=O)C(CO)c1ccccc1)C2 (some centres unmarked) [atropine]
effect on m1-E360A basal activity [3]: decreasing effects on m1-E360A basal activity

CC1CNCCN1S(=O)(=O)c1cccc2cnccc12.Cl.Cl (centres unmarked) [H7, 1-(5-isoquinolinesulfonyl)-2-methylpiperazine dihydrochloride]
effect on μ receptor (μ*) phosphorylation ([5]; dihydrochloride): strongly inhibits μ receptor phosphorylation; also recorded: inhibited μ* receptor phosphorylation | analgesia of second morphine dose, after H7 (Mice; mouse, in vivo): 90±10% | effect on morphine antinociception (Mice; mouse, in vivo): without affecting gross behavior of the animals or morphine antinociception | reversal of morphine tolerance (Mice; mouse, in vivo, dihydrochloride): fully reversed morphine tolerance; also recorded: completely reversed tolerance; also recorded: reverse morphine tolerance and dependence in mice | effect on acute depression of cAMP levels by morphine (opioid μ receptor [1]): did not prevent the acute depression of cAMP levels by morphine | effect on spontaneous cAMP overshoot induced by morphine pretreatment (opioid μ receptor [1]): had some effects on the spontaneous cAMP overshoot | effect on naloxone cAMP overshoot / formation of μ* when added with morphine pretreatment (opioid μ receptor [1]; dihydrochloride): abolished the naloxone-induced cAMP overshoot; also recorded: completely prevents the formation of μ* receptors | reversal of naloxone cAMP overshoot / μ* activity when added after morphine pretreatment (opioid μ receptor [1]; dihydrochloride): rapidly reverses μ* activity; also recorded: completely reversed the naloxone cAMP overshoot | protein kinase inhibition PKC (PKC): known to inhibit several protein kinases including PKA and PKC | protein kinase inhibition PKA (PKA): known to inhibit several protein kinases including PKA and PKC | effect on gross behavior of the animals (Male ICR mice): without affecting gross behavior of the animals | effect on naloxone induced withdrawal jumping (Male ICR mice): strongly suppressed the number of naloxone precipitated jumps

O=C(CCCN1CCC(O)(c2ccc(Cl)cc2)CC1)c1ccc(F)cc1 [haloperidol]
negative antagonism at D2 receptor [2]: some degree of negative antagonism

C[C@@H](NC(=O)[C@@H](N)Cc1ccc(O)cc1)C(=O)NCC(=O)N(C)[C@@H](Cc1ccccc1)C(=O)NCCO [DAMGO]
receptor phosphorylation, potency and efficacy relative to morphine [5]: slightly more potent and efficacious than morphine | signaling, potency and efficacy relative to morphine (μ opioid receptor [6]): slightly more potent and efficacious than morphine | classification of opioid drug (agonist / neutral / negative antagonist) (opioid μ receptor [4]): full agonists and are either as effective if not more so than morphine | receptor recycling through endocytic vesicles (μ opioid receptor [7]): induced massive receptor recycling through endocytic vesicles

D-Phe-Cys-Tyr-D-Trp-Arg-Thr-Pen-ThrNH2 [CTAP]
withdrawal jumps (Male ICR mice): 32±12 jumps

COC[C@@H]([C@H](O)[C@H](O)C(=O)NCC[C@H](C)c1nc(/C=C/C[C@@H]2O[C@]3(C[C@@H](O)[C@@H]2C)O[C@H]([C@H](C[C@H](O)[C@H](C)[C@H](O)[C@H](C)/C=C(C)/C(C)=C/C=C/C(C)=C\C#N)OC)[C@H](OP(=O)(O)O)C3(C)C)co1)N(C)C [calyculin A]
effect on m1-E360A basal activity ([3]; HEK293 cells): enhanced the basal activity

D-Phe-Cys-Tyr-D-Trp-Arg-Thr-Pen-Thr-NH2 [CTOP]
effect on acute depression of cAMP levels by morphine (opioid μ receptor [1]): block the acute effects of morphine; also recorded: reversed the reduction of the cAMP level caused by morphine | classification of opioid drug (agonist / neutral / negative antagonist) (opioid μ receptor [4]): neutral (null) antagonist; also recorded: neutral antagonists | effect on cAMP levels / constitutive activity in morphine pretreated cells (opioid μ receptor [4]): not to reverse the constitutive activity of the μ receptor state; also recorded: does not act as an inverse agonist; also recorded: no effect on the constitutively active μ receptor state; also recorded: do not affect cAMP levels; also recorded: no significant effect on cAMP levels in dependent cells | effect on naloxone cAMP overshoot when combined with naloxone (opioid μ receptor [4]): block the inverse agonist effects of naloxone; also recorded: Reversal of the naloxone cAMP overshoot | blockade of acute effects of morphine (previously known) (opioid μ receptor [8]): fully block the acute effects of morphine

CC(C)Cn1c(=O)n(C)c(=O)c2[nH]cnc21 [IBMX, 3-isobutyl-1-methyl-xanthine]
effect on μ receptor (μ*) phosphorylation [5]: suppressed μ receptor phosphorylation as observed for H7; also recorded: μ receptor kinase inhibitor; also recorded: inhibited μ* receptor phosphorylation | effect on naloxone cAMP overshoot / formation of μ* when added with morphine pretreatment (opioid μ receptor [1]): suppresses μ* formation; also recorded: capable of preventing formation of the constitutively active μ receptor state | cAMP phosphodiesterase inhibition (cAMP phosphodiesterase): cAMP phosphodiesterase inhibitor

C=CCN1CC[C@]23c4c5ccc(O)c4O[C@H]2[C@@H](O)C=C[C@H]3[C@H]1C5 [Nalorphine]
classification of opioid drug (agonist / neutral / negative antagonist) (opioid μ receptor [4]): neutral antagonists | effect on cAMP levels / constitutive activity in morphine pretreated cells (opioid μ receptor [4]): no significant effect on cAMP levels in dependent cells
